In article PMC6591174, “The beneficial androgenic action of steroidal aromatase inactivators in estrogen-dependent breast cancer after failure of nonsteroidal drugs” (Cell Death & Disease, 2019):

Legend:
[1] = system: DMBA-induced mammary carcinoma; experiment: DMBA-induced mammary carcinoma, topical treatment; assay type: in vivo, female Sprague-Dawley rats; conditions: cream 2.5% topically twice daily; for tumor growth: 4 weeks, ovariectomized rats given E2 1 μg/rat daily; for average tumor number after 28 days of treatment: 1.2 ± 0.15 at the beginning, control 4.3 ± 1.2
Protocol: Fig. 8 The effects of sterols on the DMBA-induced mammary carcinoma in rats. At an age of 50–54 days, female Sprague-Dawley rats were dosed intragastrically with 20 mg DMBA. when at least one tumor measuring 1 cm in diameter was found, the rats were ovariectomized and given intramuscular 1 μg/rat E2 daily. Animals were selected for experiments when at least one tumor per rat had reached a diameter of 1.5 cm. The skin covering the tumor was shaved and animals were divided into four groups. […] Untreated tumors served as controls. a Representative images of the tumors. b Tumor growth curve. c Average number of tumor nodules before and after treatment.The data represent six sets of independent experiments and are shown as the means ± SD. *P < 0.05, **P ≤ 0.01 vs. control group
At an age of 50–54 days, female Sprague-Dawley rats were dosed intragastrically with 20 mg DMBA (Sigma Chemical Co.) dissolved in peanut oil (1 ml/rat). Starting at 40 days after DMBA treatment, animals were examined weekly by palpation; when at least one tumor measuring 1 cm in diameter was found, the rats were ovariectomized using ether anesthesia and were given E2 (1 μg/rat) by daily intramuscular injection. Animals were selected for experiments when at least one tumor per rat had reached a diameter of 1.5 cm. Tumors were measured with calipers once a week, and their volume was calculated according to the following formula: volume = length × (width)^2 × 0.5. Rats were then divided into four groups of six animals each. […] All creams were applied for 4 weeks. […] Tumor growth in the control and treated groups was expressed as a value relative to the initial tumor volume, measured on the 1st day of treatment and taken as 1. At the beginning and end of the treatment period, the number of tumor nodules was counted.

MCF-7 cells = experiment: Cell cycle analysis by flow cytometry; assay type: cell-based, human; conditions: 100 nM, 72 h
Protocol: Fig. 2 Proliferative response of cancer cells to indicated compounds. a–c the effect of concentrations of different compounds on the growth of the cells. Cells were cultured in 10% PRF-CT with E2 1 nM (MCF-7 and ZR-75-1) or without E2 (MDA-MB-231) for 3 days before plating. Cells were seeded in 96-well plates and 24 h later they were exposed to different concentrations (1 nM– 10 μM) of compounds for 6 days (MCF-7 and ZR-75-1) or 3 days (MDA-MB-231). Cell growth was measured as described in the “Materials and methods”. The proliferation of cells is expressed as the ratio of the cells compared with the control wells (untreated cells). d, e Influence of different compounds on the cell cycle of MCF-7 cells. MCF-7 cells were cultured in 10% PRF-CT with E2 (1 nM) for 3 days before plating. Cells were seeded in six-well plates and, the next day, starved in PRF for 24 h. Cells were exposed to different compounds at a concentration of 100 nM for 72 h, and then subjected to cell-cycle analysis as described in “Materials and methods”. f MCF-7 cells on poly-L-lysine-coated glass coverslips were exposed to compounds (100 nM) in 10% PRF-CT with 1 nM E2 for 72 h. Control cells were treated with vehicle. DAPI stains DNA, and the secondary anti-mouse antibody to detect the antibody bound to Ki-67 is labeled with the cyanine dye Cy3. The cells were stained with DAPI (blue). Immunofluorescence staining of Ki-67 of cells was observed using fluorescence microscope. Red: Ki-67; blue: nucleus.Typical image is shown. Scale bars: 10 μm. Data represent a mean ± SEM of three independent experiments, each in triplicate; bars, SEM. *P ≤ 0.05 vs. control
Cell cycle kinetics were studied by flow cytometry. MCF-7 cells were cultured in 10% PRF–CT with 1 nM E2 for 3 days prior to seeding on six-well plates (10^5 cells/well). Following seeding of cells, cells were serum starved for 24 h, and then treated with media containing 100 nM of the test compounds for 72 h. Cell-cycle analysis was performed as described by Ando[20].

[2] = target: T1, Rat AR ligand-binding domains (His-GST-ARLBD) (Rattus norvegicus, UniProt P15207); experiment: AR fluorescence polarization-based competitive hormone-binding assay (PolarScreen AR Competitor Assay, Red); conditions: 25 nM His-GST-ARLBD, 2 nM Fluormone AL Red; read-out: IC50 of competitive binding to AR
T1 construct: purchased Invitrogen
T1 sequence (P15207 651-882 limits assumed): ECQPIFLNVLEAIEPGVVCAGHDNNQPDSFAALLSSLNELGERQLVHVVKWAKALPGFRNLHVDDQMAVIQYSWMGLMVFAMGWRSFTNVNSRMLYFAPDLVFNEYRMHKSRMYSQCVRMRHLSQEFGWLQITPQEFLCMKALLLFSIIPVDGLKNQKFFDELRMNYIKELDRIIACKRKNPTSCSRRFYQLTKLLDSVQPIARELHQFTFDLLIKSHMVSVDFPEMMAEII
From the text: Fig. 4 The affinity of indicated compounds to the AR and their regulation of AR transcriptional activity. a AR fluorescence polarization-based competitive hormone-binding assays. […] Curve fitting was done using GraphPad Prism software (version 7.00). […] ARE(3×)-regulated dual-luciferase activity in U2-OS cells under steroid-free conditions. Cells were transiently transfected with pcDNA3.1-AR and ARE3-luc2P (firefly luciferase reporter plasmids) and the internal normalization control pRL-TK (Renilla luciferase reporter plasmid). Six hours after transfection, cells were treated as indicated. Then they were assayed 48 h after transfection for dual-luciferase activity. […] Briefly, compounds were dissolved in DMSO and mixed at 2% (vol/vol) with AR Red Screening Buffer. The tested compounds were subsequently serially diluted in two-fold increments with AR Red Screening Buffer and mixed 1:1 (vol/vol) with a 2 × AR/Fluormone AL complex. Competition for binding AR between Fluormone AL and the tested compounds was allowed to come to equilibrium for 4 h and not more than 20 h at room temperature in the dark. Fluorescence polarization value (mP) was measured on a fluorescence polarization plate reader (Biotech cytation5). Each compound dose was performed in triplicate, relative error was calculated from the standard error of the mean (SEM), and curve fitting was performed using GraphPad Prism™ 7.0 software.

MCF-7 cells (AR siRNA) = experiment: Proliferation of MCF-7 cells after AR downregulation by siRNA; assay type: cell-based, human; conditions: 100 nM, 72 h
Protocol: Cells were cultured and treated as described in the legend of Fig. 2. […] Cell growth is expressed as the ratio of the number of cells in the experimental well to that in control wells (untreated cells). The columns represent the mean of three experiments, each with five replicates; bars, SEM. *P ≤ 0.05, **P ≤ 0.01 vs. control
AR siRNA and its control siRNA used in this study were described by Wu et al.. The sequence of the AR siRNA used was 5′-[…]-3′ and a nonspecific siRNA duplex was used as a negative control. Growing cells were switched to PRF for 24 h and then switched to 10% PRF–CT medium containing 1 nM E2 for 48 h. MCF-7 cells were trypsinized and transfected in suspension with 2.5 μg siRNA (siAR or scrambled siRNA) or pcDNA3.1-AR in six-well plates, using Lipofectamine 3000 (Invitrogen) in OPTI-MEM medium (Gibco), following the manufacturer’s instructions.

Row | SMILES | tumor growth [1] | appearance of new tumors at end of treatment ([1]; 28 days, vs control) | average tumor number after 28 days of treatment [1] [tumors per rat] | influence on the cell cycle (G1/G0 increase, S-phase decrease) (MCF-7 cells) | IC50 [2] [nM] | inhibition of proliferation after AR downregulation (MCF-7 cells (AR siRNA))
1 | C[C@]12CC[C@H]3[C@@H](CCC4=C(O)C(=O)CC[C@@]43C)[C@@H]1CC[C@@H]2O [4-OHT, 4-hydroxytestosterone] | shrinkage of the tumor | almost did not develop new tumors | 1.6 ± 0.4 | most effective of the tested compunds | 18.2 | identical results
2 | C=C1C[C@H]2[C@@H]3CC[C@H](O)[C@@]3(C)CC[C@@H]2[C@@]2(C)C=CC(=O)C=C12 [17-HEXE, 17-hydroexemestane] | growth arrest |  | 2.85 ± 0.68 |  | 10.4 | identical results
3 | C[C@]12CCC(=O)C[C@@H]1CC[C@@H]1[C@@H]2CC[C@]2(C)[C@@H](O)CC[C@@H]12 [DHT, dihydrotestosterone] | growth arrest |  | 2.25 ± 0.8 | most significant influence on the cell cycle |  | AR downregulation diminishes the ability
